In PMC6154339, “Synthesis, Characterization, Antimicrobial and Antiproliferative Activity Evaluation of Cu(II), Co(II), Zn(II), Ni(II) and Pt(II) Complexes with Isoniazid-Derived Compound” (Molecules : A Journal of Synthetic Chemistry and Natural …, 2017):
In brackets after ≈: the same amount, converted by molar mass. Like-named read-outs stand apart in the source and are kept apart here.

Tests used:
[1] = system: Escherichia coli, ATCC 25922; assay: Antibacterial activity, serial dilutions in liquid broth (MIC/MBC); assay type: cell-based; details: E. coli (G −)
Excerpt: (§1) All synthesized complexes and the ligand were screened for their in vitro antibacterial activity against Gram-positive bacteria (Staphylococcus aureus), Gram-negative bacteria (Escherichia coli, Klebsiella pneumoniae) and antifungal activity (Candida albicans) strains using the paper disc diffusion technique (for the qualitative determination) and the serial dilutions in liquid broth method (for determination of MIC). Furacillinum and nystatine were used as standard drugs.
(§2) The antibacterial activity of complexes and also of their prototype furacilin has been determined under liquid nutritive environment (2% of peptonate bullion (pH 7.0)) using the successive dilutions method. Escherichia coli, Klebsiella pneumoniae, and Staphylococcus aureus stems were used as reference culture for the in vitro experiment. The dissolution of studied substances in dimethylformamide, microorganism cultivation, suspension obtaining, determination of minimal inhibition concentration (MIC) and minimal bactericide concentration (MBC) have been carried out according to the method previously reported.

[2] = system: Staphylococcus aureus, ATCC 25923; assay: as above; assay type: cell-based; details: S. aureus (G +)
Excerpt: as §1, §2

[3] = system: Klebsiella pneumoniae, ATCC 31,488; assay: as above; assay type: cell-based; details: K. pneumoniae (G −)
Excerpt: as §1, §2

Candida albicans = assay: Antifungal (antimycotic) activity, liquid Sabouraud medium (MIC/MBC); assay type: cell-based; details: C. albicans
Excerpt: as §1
Antimycotic properties of the complexes were investigated in vitro on laboratory stem Candida albicans. The activity has been determined in a liquid Sabouraud nutritive environment (pH 6.8). The inoculates were prepared from fungi stems which were harvested over 3–7 days. Their concentration in suspension is (2–4) × 10^6 colonies form unities in milliliter. Sowings for levures and micelles were incubated at 37 °C during 7 and 14 days, respectively.

[4] = Qualitative solubility in organic solvents; assay type: physicochemical
[5] = Solubility in compendial aqueous media; assay type: physicochemical; details: 37 °C, 30 min, mean ± standard deviation, n = 3
Procedure: Solubility assessment was conducted in compendial aqueous solutions prepared according to United States Pharmacopoeia USP39/NF34): hydrochloric acid 0.1 N pH 1.2, acetate buffer pH 4.5 and phosphate buffer 6.8. These buffer systems are routinely used for screening of drug dissolution testing and they simulate the pH values of proximal gastrointestinal regions. The standard samples were prepared by diluting the stock solution of 80 µg/mL in dimethyl sulfoxide (with 0.2% pyridine, v/v) with corresponding media. The reagents were of analytical grade and used as received.
The assay was performed using a SpectraMax Plus 84 Plate reader reader (Sunnyvale, CA, USA), Molecular Devices LLC (US), equiped with SoftMax software version 6.4.2 (Sunnyvale, CA, USA). Separate plates were loaded with standard solutions in nine concentrations (0.2 to 80 µg/mL). For evaluation of the aqueous solubility, the samples were prepared in triplicate by adding 10 µL of the stock solution to the wells loaded with 190 µL of each buffer, using MultiScreen HTS plates (PCF, code MSSLBPC, Merck Millipore, Darmstadt, Germany). After 30 minutes of incubation at 37 ± 0.5 °C under agitation (250 rpm, IKA KS 4000 ic control, IKA, Staufen, Germany), the plates were filtrated under vacuum using a Vac-Man 96 Vacuum manifold (Promega Corporation, Madison, WI, USA). The solutions were collected in V-bottom polypropylene 96-well microplates (Greiner Bio-One, Kremsmünster, Austria). Volumes of 100 µL were transferred to UV-Star 96-well microplate with flat bottom (Chimney well, Grained Bio-One) and diluted by addition of 100 µL of the corresponding medium. The absorbance corresponding to each well was determined at fixed wavelengths: 280, 300, 320, 340, 360 and 800 nm. The reduced value of absorbance, calculated by the sum of the values recorded at the six wavelengths, were used for the calibration curve and subsequent determination of concentration in each solubility sample.

[6] = system: MCF-7 human breast cancer cell line; assay: Alamar blue cell viability assay; assay type: cell-based; details: 48 h treatment, 10 µM, relative to untreated control
Procedure: (§3) Compounds HL, 1, 5, 6 and 8 were dissolved in dimethyl sulfoxide (DMSO; Sigma-Aldrich, Ayrshire, UK) and stored at 2–8 °C. Compounds 2, 3, 4 and 7 were dissolved in pyridine (Fluka, Munich, Germany). A stock solution of 10 mM in the proper solvents was prepared; as for the final concentration (10 µM), successive dilution of the stock solution with culture medium was made.
(§4) The breast cancer cell lines were cultured as follow: MCF-7 human breast cancer cell line (ATCC, Rockville, MD, USA) was cultured in EMEM (Sigma Aldrich, Munich, Germany) supplemented with 10% FCS (fetal bovine serum, PromoCell, Heidelberg, Germany), 1% penicillin-streptomycin (Pen/Strep, 10,000 IU/mL; PromoCell, Heidelberg, Germany), 1% nonessential amino acids and 1% glutamine (PromoCell, Heidelberg, Germany). SKBR-3 human breast cancer cell line was cultured in McCoy’s 5a Medium Modified (Sigma Aldrich, Munich, Germany) supplemented with 10% FCS (fetal bovine serum, PromoCell, Heidelberg, Germany), 1% penicillin-streptomycin (Pen/Strep, 10,000 IU/mL; PromoCell, Heidelberg, Germany). A375 human melanoma cell line was cultured in DMEM containing 15% FCS (fetal bovine serum, PromoCell, Heidelberg, Germany) and 1% penicillin-streptomycin (Pen/Strep, 10,000 IU/mL; PromoCell, Heidelberg, Germany). Cells were maintained at an atmosphere of 5% CO2 at 37 °C. NCI-H1573 lung adenocarcinoma cell line was cultured in RPMI-1640 Medium (ATCC, Rockville, MD, USA) supplemented with 10% FCS (fetal bovine serum, PromoCell, Heidelberg, Germany), 1% penicillin-streptomycin (Pen/Strep, 10,000 IU/mL; PromoCell, Heidelberg, Germany).
(§5) All tested cell lines were seeded onto a 96-well microplate ([…]) and left overnight to attach to the bottom of the well. After 24 h, the amount of 150 μL of the tested substances dissolved into the culture medium was added and cells were incubated for 48 h. After the incubation period, a volume of 15 μL of the Alamar blue (BioSource, Camarillo, CA, USA) solution was added. After another 10 h of incubation at 37 °C, the samples were spectrophotometrically analyzed using a microplate reader. The wave lengths used were 570 nm and 600 nm, respectively. Wells with untreated cells were used as controls. The highest concentration of DMSO and pyridine (0.1%) used to prepare stock solutions was also tested, in order to identify the solvent activity. All measurements were performed in triplicate and data were presented as mean ± standard deviation.

[7] = system: A375 human melanoma cell line; assay: Alamar blue cell viability assay; assay type: cell-based; details: 48 h treatment, 10 µM, relative to untreated control
Procedure: as §3, §4, §5

[8] = system: SKBR-3 human breast cancer cell line; assay: Alamar blue cell viability assay; assay type: cell-based; details: 48 h treatment, 10 µM, relative to untreated control
Procedure: as §3, §4, §5

[9] = system: NCI-H1573 lung adenocarcinoma cell line; assay: Alamar blue cell viability assay; assay type: cell-based; details: 48 h treatment, 10 µM, relative to untreated control
Procedure: as §3, §4, §5

[10] = Hydrochloric Acid 0.1 N (pH = 1.2)

SMILES	LC50 of copper acetate relative to the perchlorate (Daphnia magna; after 24 h of exposure, printed as 'lower')	LC50 (Daphnia magna; incubation period 24 h)	LC50 (Daphnia magna; incubation period 48 h)	MBC [1]	MIC [1]	MBC [2]	MIC [2]	MBC [3]	MIC [3]	MBC (Candida albicans)	MIC (Candida albicans)	solubility in organic solvents (qualitative) [4]	solubility in compendial media ([5]; Acetate Buffer (pH = 4.5))	solubility in compendial media [5, 10]	solubility in compendial media ([5]; Phosphate Buffer (pH = 6.8))	Viability % [6]	Viability % [7]	Viability % [8]	Viability % [9]
CC(=O)[O-].CC(=O)[O-].[Cu+2] [Cu(CH3COO)2]	about 25 fold	9.68 µM	0.44 µM																
[Cu+2].[O-][Cl+3]([O-])([O-])[O-].[O-][Cl+3]([O-])([O-])[O-] [Cu(ClO4)2]		0.39 µM																	
O=[N+]([O-])[O-].O=[N+]([O-])[O-].[Cu+2] [Cu(NO3)2]		7.43 µM	1.39 µM																
[Cl][Cu][Cl] [CuCl2]		4.23 µM	0.97 µM																
NC(=O)N/N=C/c1ccc([N+](=O)[O-])o1 [Furacillinum, reference compound]				37.5 µg/mL (≈ 189 µM)	18.7 µg/mL (≈ 94.4 µM)	9.35 µg/mL (≈ 47.2 µM)	9.35 µg/mL (≈ 47.2 µM)	>300 µg/mL	>300 µg/mL										
[Cl][Pt-2]([Cl])([Cl])[Cl].[K+].[K+] [K2PtCl4]		27.7 µM	5.63 µM																
[Cl][Ni][Cl] [NiCl2]		100 µM	16.2 µM																
C[C@@H]1[C@H](O)[C@@H](C)/C=C/C=C/CC/C=C/C=C/C=C/C=C/C(O[C@H]2O[C@H](C)[C@@H](O)[C@H](N)[C@@H]2O)CC2O[C@](O)(CC(O)C(O)CCC(O)CC(O)CC(O)CC(=O)O[C@H]1C)CC(O)C2C(=O)O (stereo partly drawn) [Nystatine, reference compound]										80 µg/mL (≈ 86.4 µM)	80 µg/mL (≈ 86.4 µM)								
[Cl-].[Cl-].[Zn+2] [ZnCl2]		15.4 µM	0.89 µM																
COc1cccc(C=NNC(=O)c2ccncc2)c1[O-].O.O.[Cl-].[Cu+2] [complex 1, [Cu(L)(Cl)]·2H2O]		394 µM	69.5 µM	500 µg/mL	500 µg/mL	0.03 µg/mL	0.015 µg/mL	500 µg/mL	500 µg/mL	15 µg/mL	7 µg/mL	soluble in acetone, acetonitrile, DMF and DMSO, and is partially soluble in ethanol and methanol	1.89 ± 0.20 µg/mL	2.34 ± 0.28 µg/mL	<0.2 µg/mL	2.47%	84.43%	25.24%	
COc1cccc(C=NNC(=O)c2ccncc2)c1[O-].O.[Cu+2].[O-][Cl+3]([O-])([O-])[O-] [complex 4, [Cu(L)(ClO4)]·H2O]				500 µg/mL	250 µg/mL	0.7 µg/mL	0.7 µg/mL	500 µg/mL	250 µg/mL	0.7 µg/mL	0.7 µg/mL	soluble in pyridine and is partially soluble in ethanol, methanol, acetonitrile, acetone, DMF and DMSO	1.67 ± 0.28 µg/mL	0.82 ± 0.6 µg/mL	<0.2 µg/mL	3.43%	0.70%	48.72%	10.05%
COc1cccc(C=NNC(=O)c2ccncc2)c1[O-].COc1cccc(C=NNC(=O)c2ccncc2)c1[O-].[Zn+2] [complex 6, [Zn(L)2]]				250 µg/mL	125 µg/mL	125 µg/mL	63 µg/mL	250 µg/mL	250 µg/mL	125 µg/mL	125 µg/mL	soluble in pyridine, DMF and DMSO, and is partially soluble in ethanol, methanol, acetonitrile, acetone	1.56 ± 0.82 µg/mL	1.65 ± 0.06 µg/mL	<0.2 µg/mL	17.72%	71.66%	61.43%	33.77%
COc1cccc(C=NNC(=O)c2ccncc2)c1[O-].[Cl-].[Ni+2] [complex 7, [Ni(L)(Cl)]]		351 µM	210 µM	500 µg/mL	500 µg/mL	0.7 µg/mL	0.7 µg/mL	500 µg/mL	500 µg/mL	125 µg/mL	125 µg/mL	soluble in methanol, pyridine, DMF and DMSO, and is partially soluble in acetonitrile, acetone	1.91 ± 0.26 µg/mL	2.26 ± 0.44 µg/mL	<0.2 µg/mL	47.75%	98.97%	21.11%	
COc1cccc(C=NNC(=O)c2ccncc2)c1[O-].[Cl-].[Pt+2] [complex 8, [Pt(L)(Cl)]]		469 µM	78.2 µM	250 µg/mL	125 µg/mL	0.7 µg/mL	0.7 µg/mL	500 µg/mL	250 µg/mL	63 µg/mL	63 µg/mL	soluble in DMF and DMSO, and is partially soluble in ethanol, methanol, acetonitrile, acetone	2.49 ± 0.09 µg/mL	1.33 ± 0.05 µg/mL	<0.2 µg/mL	21.71%	73.45%		20.34%
